This is an account of results in PMC7734798 (ACS Medicinal Chemistry Letters, 2020).

One data set relates to N9 microglial cells. Nature of the data set: Nitrites measurement (Griess reaction) in medium of LPS-treated N9 microglial cells. The class given is cell-based, mouse. Particulars: 100 ng/mL LPS, 6 h pretreatment + 24 h. The text has this:
Microglia, essential regulators of neuroinflammatory processes, can be polarized to two distinct activation states: M1 and M2. M1 microglia have proinflammatory, neurotoxic properties and are modeled in vitro through lipopolysaccharides (LPS) activation. Alternatively, M2 microglia are involved in anti-inflammatory processes, contributing to trophic support of neurons and neuroprotective functions. A marked microglial activation with high expression levels of proinflammatory genes is found in MS lesions.[23] Conversely, the neuroprotective effects of the MS drug glatiramer are mediated by activated M2 microglia.[24] To this end, we evaluated whether 1 and 2 modulate microglial shift from an M1 neurotoxic phenotype to an M2 neuroprotective one. […] After pretreatment for 6 h and administration for a further 24 h, the microglial phenotype was evaluated through Western blot analysis of the M1-iNOS (inducible Nitric Oxide Synthase) and M2-TREM2 (Triggering Receptor Expressed on Myeloid cells 2) markers (Figure 6). We also assessed nitrite production, due to iNOS induction, in the incubation media. […]
medium/well and treated with increasing concentrations of the compounds (0.5, 1, 5 and 10 μM), in serum-free DMEM for 24 hours. After 24 hours, the viability was evaluated through the MTT assay. […]

Data set [1] in a line: Rat plasma stability assay (LC-DAD-MS/MS). The class given is in vitro ADME. Particulars: 1 h of incubation at 37 °C. Here is the method:
Our aim was to develop plasma-stable conjugates that would be hydrolyzed in the brain. Selective localized hydrolysis of conjugates 1 and 2 would permit a CNS-targeted profile and less side effects. Thus, plasma stability is an important pharmacokinetic prerequisite for 1 and 2. As reported by stability assays performed by LC-DAD-MS/MS analysis (Figure 3), conjugates 1 and 2 are stable for more than 85% after 1 h of incubation at 37 °C in rat plasma. […] The mean plasma remaining fraction of the two conjugates after 1 h of incubation was compared by means of t test and a statistically relevant difference (p < 0.01) was observed.
Velp (Usmate, Italy) RX3 vortex mixer and an Elma (Singen, Germany) Sonic T310 Trans ultrasonic […]
Chromatographic runs were obtained on an Agilent (Palo Alto, Ca, US) ZORBAX SB-C18 column (50 × 2.1 mm I.D., 3.5 µm particles), maintained at room temperature and equipped with a guard column. […] For compound stability and hydrolysis studies, multiple reaction monitoring (MRM) acquisition mode was set up for both compounds 1 and 2, by flow-injection analysis directly in the MS source, in order to optimize ionization parameters and to select two exclusive MRM m/z transitions for each analyte, exploited for quantitative purposes and for qualitative confirmation, respectively. […]

Data set [2] is described as follows: PAMPA-BBB permeation assay. Particulars: for Papp at 100 µM: PAMPA, pH 7.4; for BBB penetration estimation, CNS (+/−): PAMPA-BBB prediction.

Entries after “also recorded” stand apart in the source; their conditions may differ.

For orientation: Papp means a coefficient for how fast a substance crosses the barrier. Low readings indicate poor permeation, high ones ready permeation. Turning to `CC/C=C\C/C=C\C/C=C\CCCCCCCC(=O)NCCNC(=O)C(CCC)CCC` [compound 1], the “levels of nitrites in incubation medium” value in the data set with N9 microglial cells is “reduced their concentration more effectively than VPA”. The “percentage remaining upon incubation in rat plasma” value in data set [1] is 89%. In data set [2], the apparent permeability coefficient (Papp) at 100 µM turned out to be 28 ± 5.3 ×10⁻⁶ cm/s and the “BBB penetration estimation, CNS (+/−)” value is “high BBB permeability; also recorded: CNS +”.
Regarding `CC/C=C\C/C=C\C/C=C\CCCCCCCC(=O)NCCOC(=O)C(CCC)CCC` [compound 2], the “levels of nitrites in incubation medium” value in the data set with N9 microglial cells was “reduced their concentration more effectively than VPA”. In data set [1], the “percentage remaining upon incubation in rat plasma” value was 85%. For the same compound, in data set [2], the apparent permeability (Papp) at 100 µM is 14.6 ± 1.61 ×10⁻⁶ cm/s and the “BBB penetration estimation, CNS (+/−)” value is “BBB-permeable; also recorded: CNS +”.
